One experiment deals with lung DCs. The experiment is described as follows: In vivo tracking of DCs after intranasal fluorescently labelled HDM. Set-up: species or system mouse. The conditions noted are these: L-tyrosine-treated mice, intranasal HDM-AF647. The protocol:
Mediastinal lymph nodes were filtered through a 40 μm cell strainer, washed with PBS supplemented with 1% fetal bovine serum and 2 mM EDTA (Invitrogen) (MACS buffer). Lungs were finely cut with scissors, digested with Collagenase IV (Gibco™) in Iscove's modified Dulbecco's medium (IMDM, Gibco™) for 50 min at 37° C. and processed as the lymph nodes. Cell counts were determined with Coulter Counter and […] were stained with freshly prepared antibody mix in MACS buffer for 20 minutes at 4° C. in a 96-well round-bottom plates (Costar). Dendritic cells were identified using monoclonal antibodies against CD11c-phycoerythrin (PE)/Cy7 (Biolegend, cat nr 117318; diluted 1:400 in MACS buffer), SiglecF-Alexa Fluor (AF) 647 (BD Biosciences™, 562680; 1:400) and MHC-II-AF700 (Biolegend, 107622, 1:800). DC activation was assessed using antibodies against PD-L2-PE (Biolegend, 107205; 1:200), CD80− Brilliant Violet (BV)-605 (Biolegend, 104729; 1:200) and CD86-BV650 (Biolegend, 105035; 1:200). T helper cells were identified using antibodies against CD3c-Pacific Blue (PB) (Biolegend, 100214; 1:800) and CD4− PerCP-Cy5.5 (Biolegend, 100434; 1:800). Activated T helper cells were identified using anti-CD44-PE antibody (BD Biosciences™, 553134, 1: 400) A regulatory subset of T helper cells (Tregs) was identified with the addition of anti-CD25-AF700 (Biolegend, 102024; 1:200) and anti-Foxp3-AF647 (Biolegend, 126408; 1:200) antibodies. For the latter, an intracellular staining was performed, where cells were incubated with anti-Foxp3 antibody diluted in 0.5% saponin from Quillaja bark (Sigma-Aldrich) for 40 minutes at 4° C. B cells were identified with anti-CD19-PE/Cy7 (eBioscience, 25-0193; 1:200) and anti-B220-FITC (Biolegend, 103206; 1:200). When indicated, HEL and HDM were labelled with Alexa Fluor 647 antibody labelling kit (Invitrogen™) and separated from the unlabelled dye with the use of PD-10 desalting columns (GE Healthcare). […] Samples were analyzed with FlowJo 10.4.2 software (Tree Star Inc., Ashland, Oreg.). […]

The test system of the next experiment is pulmonary DCs. Kind of experiment: DC:T cell co-culture (priming of naive OT-II cells / restimulation of effector Th cells). It is filed as cell-based, mouse. Conditions: pulmonary DCs from L-tyrosine-treated mice. The text has this:
Data from a-c are pooled from two experiments (a, b, n=10 biologically independent samples per group; c, n=9 biologically independent samples per group). Data in d represent technical replicates (n=6 left panel, n=5 right panel) from one experiment. Data in e are pooled from 3 independent experiments (n=6 per group). Data in f are pooled from two independent experiments (n=5 biologically independent samples per group). Data in g are pooled from two independent experiments (n=9 biologically independent samples per group). Data in h are pooled from two independent experiments (n=4 biologically independent samples per group). All data are presented as mean values±s.e.m. Statistical significance for a-d, f, g, was evaluated with unpaired Student's t-test (in the case of Gaussian distribution) or Mann-Whitney test (non-Gaussian distribution). Statistical significance for e, h was determined with One-Way analysis of variance (ANOVA) with Dunnett correction for multiple comparisons. Data distribution was assessed with D'Agostino & Pearson normality test. *p≤0.05, **p≤0.01, ***p≤0.001, ****p≤0.0001
DC: T cell co-cultures were set-up by sorting CD11c+ SiglecF− (DCs) and CD4+CD44+ T cells from the lungs of HDM-immunized mice on FACSAria III (BD Biosciences™, San Jose, Calif.). […]

SMILES strings stand for the structures.

As to `N[C@@H](Cc1ccc(O)cc1)C(=O)O` [L-tyrosine], in the experiment on lung DCs, the “activation of lung DCs (surface CD80, CD86, PD-L2)” value is recorded as “impairment”; the “antigen (HDM) uptake by lung DCs” value was “modest effect”; the “migratory capacity of DCs (frequency of HDM+ DCs in the draining LNs)” value was “decreased”. The “capacity of DCs to restimulate in vivo-primed effector T helper cells into an IL-13-producing subset” value in the experiment with pulmonary DCs was “impaired”. Moreover, in the experiment on pulmonary DCs (OT-II cells), the “capacity of DCs to prime naive CD4+ T cells into an IL-13-producing subset” value is “impaired”.

These data come from patent publication US20230045151A1, “COMPOSITIONS AND METHODS” (MONASH UNIVERSITY, priority 2020, published 2023).
